Reference: PMC5514153, “Targeting PTPRZ inhibits stem cell-like properties and tumorigenicity in glioblastoma cells” (Scientific Reports, 2017)

Target: T1, PTPRZ1 V1911F (Homo sapiens, UniProt P23471, V1911F)
T1 construct: Point mutants of the PTPRZ1-ICR, PTPRG-ICR, and PTPN1 catalytic domain were generated; GST (N); made in house
Assay: Inhibitor sensitivity of point mutant PTPRZ1 V1911F
Format: biochemical
Conditions: 10 µM, vs wild-type PTPRZ1
Source text: Figure 5 Structural basis for PTPRZ inhibition of NAZ2329. (A) An enlarged view of the X-ray structure of human PTPRZ1-D1 complexed with NAZ2329 (PDB ID: 5H08) (left), X-ray structure of the apo (open) form of PTPRZ1-D1 (PDB ID: 5AWX, ref. [6], middle) and a computer-modeled structure of the closed form of PTPRZ1-D1 complexed with a competitive inhibitor, SCB4380 (ref. [6], right), are shown. PTPRZ1-D1 is shown as a gray surface representation, in which Cys1933 at the active site and Val-1911 at the bottom of the allosteric pocket are indicated in red and yellow, respectively. Inhibitors are colored according to the atomic species in a stick figure representation as follows: oxygen (red), nitrogen (blue), sulfur (yellow), and carbon (green). The bottom figures show the conformation of the WPD loop (orange) as cartoon representations, in which Asp1901 and Cys1933 are indicated by orange and red spheres, respectively. Side chains of Arg1939 at the active site, Met1902 in the WPD loop, and Val-1911 at the bottom of the allosteric binding area are also shown in the stick representation. (B) LigPlot representation of the NAZ2329 interaction with PTPRZ1-D1. The predicted hydrogen bonds (broken black lines) and residues (red spoked arcs) involved in the hydrophobic interaction are shown. […]

T1 sequence (P23471 1663-2315 V1911F limits assumed): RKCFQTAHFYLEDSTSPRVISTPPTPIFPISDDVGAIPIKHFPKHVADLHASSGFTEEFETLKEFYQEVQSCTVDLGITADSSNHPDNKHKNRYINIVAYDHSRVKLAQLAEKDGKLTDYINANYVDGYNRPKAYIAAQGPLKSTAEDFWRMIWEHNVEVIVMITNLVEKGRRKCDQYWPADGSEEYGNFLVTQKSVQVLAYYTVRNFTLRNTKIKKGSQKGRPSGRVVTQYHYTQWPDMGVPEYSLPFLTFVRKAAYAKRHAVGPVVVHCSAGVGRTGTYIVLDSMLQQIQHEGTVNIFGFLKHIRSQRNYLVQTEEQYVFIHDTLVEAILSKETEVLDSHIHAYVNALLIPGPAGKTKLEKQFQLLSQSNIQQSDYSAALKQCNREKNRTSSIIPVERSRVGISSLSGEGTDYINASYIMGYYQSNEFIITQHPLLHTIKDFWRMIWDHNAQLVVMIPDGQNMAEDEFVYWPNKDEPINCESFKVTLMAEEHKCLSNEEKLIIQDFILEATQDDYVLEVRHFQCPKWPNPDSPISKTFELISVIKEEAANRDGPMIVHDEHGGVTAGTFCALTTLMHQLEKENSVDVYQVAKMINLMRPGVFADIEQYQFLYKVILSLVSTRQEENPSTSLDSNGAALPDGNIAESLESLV

- effect of V1911F substitution on sensitivity to inhibitor: markedly reduced the sensitivity
Compound: CCOc1ccc(C(F)(F)F)cc1CSc1ccsc1C(=O)NS(=O)(=O)c1ccccc1 [NAZ2329]
